Several values for one entry are separate records, joined by “and”; a condition that tells them apart may be missing. Equal entries are not always repeated.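 Method: 48-hour compound exposure of cells in 96-well plates, five concentrations, linear interpolation of endpoints. The concentration for 50% growth inhibition is given as GI50. At the TGI there is no net growth.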
Legend:
Assay in all cases: NCI anticancer screen, dose series, 48 h
SR leukemia = tested on: SR leukemia
786-0 renal = tested on: 786-0 renal
SN12C renal = tested on: SN12C renal
HCC-2998 colon = tested on: HCC-2998 colon
UO-31 renal = tested on: UO-31 renal
NCI-H460 lung = tested on: NCI-H460 lung
HOP-92 NSCLC = tested on: HOP-92 NSCLC
OVCAR-4 ovarian = tested on: OVCAR-4 ovarian
NCI-H23 lung = tested on: NCI-H23 lung
SF-539 CNS = tested on: SF-539 CNS

Structure (SMILES) | GI50 (SR leukemia) | TGI (SR leukemia) | GI50 (786-0 renal) | TGI (786-0 renal) | GI50 (SN12C renal) | TGI (SN12C renal) | GI50 (HCC-2998 colon) | TGI (HCC-2998 colon) | GI50 (UO-31 renal) | TGI (UO-31 renal) | GI50 (NCI-H460 lung) | TGI (NCI-H460 lung) | GI50 (HOP-92 NSCLC) | TGI (HOP-92 NSCLC) | GI50 (OVCAR-4 ovarian) | TGI (OVCAR-4 ovarian) | GI50 (NCI-H23 lung) | TGI (NCI-H23 lung) | GI50 (SF-539 CNS) | TGI (SF-539 CNS)
COc1cc(C(=O)n2nc(N)c3c(C)cc(C)nc32)cc(OC)c1OC | 0.784 µM | > 100 µM | > 100 µM | > 100 µM | > 100 µM | > 100 µM | > 100 µM | > 100 µM | > 100 µM | > 100 µM | > 100 µM | > 100 µM | > 100 µM | > 100 µM | > 100 µM | > 100 µM | > 100 µM | > 100 µM | > 23.4 µM | > 100 µM
CSc1nc2c(c(=O)n1C)C(c1ccccc1)C1=C(N2)/C(=C/c2ccccc2)CCC1 (stereo not drawn) | 1.89 µM | > 100 µM | 11.7 µM | 56.4 µM | 53 µM | > 100 µM | > 100 µM | > 100 µM | 1.69 µM | 30.7 µM | 9.87 µM | > 100 µM | 36.6 µM | > 100 µM | 30.8 µM | > 100 µM | 7.1 µM | > 100 µM | 9.98 µM | 81.5 µM
CNC(=O)c1cc(Oc2ccc(NC(=O)Nc3cc(C(C)(C)C)nn3-c3ccc4ncccc4c3)c(F)c2)ccn1 | 0.633 µM and 0.497 µM | 3.91 µM and 3.85 µM | 2.69 µM and 3.08 µM | 8.13 µM and 8.95 µM | 0.646 µM and 0.484 µM | 5.74 µM and 4.68 µM | 3.21 µM and 3.38 µM | 7.82 µM and 7.78 µM | 1.62 µM and 1.78 µM | 7.7 µM and 6.39 µM | 2.06 µM and 2.04 µM | 8.11 µM and 6.93 µM | 0.46 µM and 0.446 µM | 4.85 µM and 4.6 µM | 2.38 µM and 2.49 µM | 7.74 µM and 14.5 µM | 1.65 µM and 1.26 µM | 5.91 µM and 4.78 µM | 2 µM and 1.71 µM | 4.62 µM and 3.66 µM
O=C1/C(=C/c2ccc([N+](=O)[O-])o2)Oc2ccc(Cl)cc21 | 0.267 µM | 1.26 µM | 2.72 µM | 7.06 µM | 2.2 µM | 5.67 µM | 2.18 µM | 4.56 µM | 1.35 µM | 3.87 µM | 3 µM | 15.4 µM | 1.45 µM | 3.31 µM | 1.9 µM | 3.68 µM | 2.11 µM | 5.07 µM | 1.82 µM | 3.97 µM
COc1ccc2c(c1)-c1c(c3cc(OC)ccc3n(CCN(C)C)c1=O)C2=O | 0.592 µM | 2.64 µM | 2.35 µM | 9.42 µM | 0.32 µM | 6.16 µM | 1.18 µM | 9.24 µM | 0.127 µM | 1.23 µM | 0.341 µM | 2.09 µM | 2.65 µM | 50 µM | 0.799 µM | 4 µM | 1.59 µM | 8.82 µM | 1.99 µM | 8.58 µM
COC(=O)CC1=C(C)/C(=C/c2[nH]c(-c3ccc[nH]3)cc2OC)N=C1C | 0.133 µM | 0.677 µM | 0.191 µM | 0.723 µM | 0.458 µM | 9.19 µM | 0.207 µM | 6.07 µM | 0.187 µM | 0.633 µM | 0.179 µM | 2.2 µM | 0.0571 µM | 0.337 µM | 0.147 µM | 4.03 µM | 0.325 µM | 3.09 µM | 0.331 µM | 2.27 µM
C=C(C)C(=O)Nc1ccc(-c2c(-c3ccc(Oc4nccc(C)n4)c(F)c3)c3c(N)ncnc3n2C)cc1 | 2.36 µM | 9.64 µM | 2.43 µM | 30.6 µM | 2.63 µM | 17.2 µM | 7.45 µM | 21 µM | 1.18 µM | 2.98 µM | 3.05 µM | 13.3 µM | 2.83 µM | 32.3 µM | 2.84 µM | 33.8 µM | 4.27 µM | 18.4 µM | 1.88 µM | 8.89 µM
CSc1nnc(C(C#N)C#N)nn1 | – | > 100 µM | – | > 100 µM | – | > 100 µM | – | > 100 µM | – | > 100 µM | – | > 100 µM | – | > 100 µM | – | > 100 µM | – | > 100 µM | – | > 100 µM
CCN1C(=O)N(CC)C2C1N=C(SC)N2/N=C/C=C/c1ccccc1OC (stereo not drawn) | 0.358 µM | 13.2 µM | 0.538 µM | 31.7 µM | 0.512 µM | > 43.5 µM | 0.413 µM | > 41.1 µM | 0.821 µM | > 47.3 µM | 0.341 µM | > 34.3 µM | 0.428 µM | 7.31 µM | 1.55 µM | > 81.5 µM | 0.51 µM | > 38.8 µM | 0.315 µM | 1.69 µM
FC(F)(F)c1cccc(-c2[nH]ncc2-c2nnnn2-c2ccccc2)c1 | 1.94 µM | 5.42 µM | 5.78 µM | 22 µM | 9.76 µM | 21.9 µM | 2.5 µM | 11 µM | 10.7 µM | 23.6 µM | 3.32 µM | 12.8 µM | – | 8.19 µM | 11.7 µM | 28.8 µM | 5.86 µM | 23.3 µM | 6.79 µM | 21 µM
CN1CCN(c2ccc(NC3=CC(=O)c4ncncc4C3=O)cc2)CC1 | 0.321 µM | > 100 µM | 0.248 µM | 0.645 µM | 0.326 µM | 0.969 µM | 1.27 µM | 2.82 µM | 0.27 µM | 0.761 µM | 0.354 µM | 1.22 µM | 0.312 µM | 0.993 µM | 0.147 µM | 0.28 µM | 0.369 µM | 1.67 µM | 0.612 µM | 1.69 µM
COc1ccc2c(c1)/C(=N/OC(C)=O)c1c-2c(OC)nc2ccccc12 | 21.6 µM | > 100 µM | > 100 µM | > 100 µM | 59.9 µM | > 100 µM | > 100 µM | > 100 µM | > 100 µM | > 100 µM | > 100 µM | > 100 µM | 22.5 µM | 82.3 µM | 58.3 µM | > 100 µM | > 100 µM | > 100 µM | 72.9 µM | > 100 µM
CCC(=O)Nc1nnc(Cc2ccc(OC)c(OC)c2)s1 | > 100 µM | > 100 µM | > 100 µM | > 100 µM | > 100 µM | > 100 µM | > 100 µM | > 100 µM | > 100 µM | > 100 µM | > 100 µM | > 100 µM | 78.7 µM | > 100 µM | > 100 µM | > 100 µM | > 100 µM | > 100 µM | > 100 µM | > 100 µM
N#CC1=C(N)OC2=C(CCOc3c2ccc2ccccc32)C1c1ccc(Br)cc1 (stereo not drawn) | 17 µM | 57.8 µM | 44.9 µM | > 100 µM | 21.6 µM | 47 µM | 22.1 µM | 56.9 µM | > 100 µM | > 100 µM | 28.4 µM | > 100 µM | 14.1 µM | 47.4 µM | 27.1 µM | > 100 µM | 32.8 µM | > 100 µM | > 100 µM | > 100 µM
CN(C)N=Nc1ccc(S(N)(=O)=O)cc1 | – | > 100 µM | – | > 100 µM | – | > 100 µM | – | > 100 µM | – | > 100 µM | – | > 100 µM | – | > 100 µM | – | > 100 µM | – | > 100 µM | – | > 100 µM
O=C1NC(=NCCc2ccc(Br)cc2)S/C1=C\c1ccc2ncccc2c1 | 7.31 µM | > 25 µM | > 25 µM | > 25 µM | > 25 µM | > 25 µM | > 25 µM | > 25 µM | > 25 µM | > 25 µM | > 25 µM | > 25 µM | > 25 µM | > 25 µM | 10.5 µM | > 25 µM | > 25 µM | > 25 µM | 14.5 µM | > 25 µM
COc1ccc2nc3ccccc3c(NCCNCC(C)O)c2c1 (stereo not drawn) | 0.278 µM | 10.8 µM | 0.306 µM | 1.83 µM | 0.253 µM | 2.22 µM | 0.519 µM | 2.37 µM | 0.398 µM | 2.39 µM | 0.276 µM | 10.4 µM | 0.393 µM | 3.48 µM | 0.463 µM | 4.45 µM | 0.367 µM | 2.05 µM | 0.435 µM | 2.04 µM
COc1cc(O)c(C(=O)/C=C/c2ccc(OC)c(OCc3ccccc3)c2)c(OC)c1 | – | > 100 µM | – | > 100 µM | – | > 100 µM | – | > 100 µM | – | > 100 µM | – | > 100 µM | – | > 100 µM | – | > 100 µM | – | > 100 µM | – | > 100 µM
CC(C)(C)[Si](C)(C)OC1[C@@H](COC(=O)NC(=O)CCl)O[C@@H](n2cnc3c(N)ncnc32)[C@H]1O[Si](C)(C)C(C)(C)C (stereo partly drawn) | 0.357 µM | 1.31 µM | 1.05 µM | 2.33 µM | 1.17 µM | 3.23 µM | 5.44 µM | 12.6 µM | 2.3 µM | 5.88 µM | 7.22 µM | 14.9 µM | 1.76 µM | 9.24 µM | 3.89 µM | 10.7 µM | 1.02 µM | 2.32 µM | 6.97 µM | 13.6 µM
Cc1c(C(N)=O)sc2nc(C)n(/N=c3\scc(-c4ccccc4)n3Cc3ccccc3)c(=O)c12 | 5.74 µM | > 100 µM | 3.82 µM | > 100 µM | 3.84 µM | > 100 µM | 3.05 µM | > 100 µM | 1.66 µM | 7 µM | 2.65 µM | 7.34 µM | 1.34 µM | 5.33 µM | 2.5 µM | > 100 µM | 3.12 µM | > 100 µM | 4.02 µM | > 100 µM
CC/C=C\C[C@H]1C/C=C2/C(=O)C(Cl)=C[C@@H]2C/C=C\CCCC(=O)O1 | 0.0753 µM | 4.93 µM | 0.521 µM | 1.19 µM | 0.575 µM | 2.57 µM | 0.437 µM | 0.826 µM | 0.352 µM | 0.703 µM | 0.545 µM | 1.89 µM | 0.499 µM | 1.6 µM | 0.952 µM | 4.9 µM | 0.459 µM | 1.22 µM | 0.523 µM | 1.41 µM
C[C@]12CCC(=O)C[C@@H]1CC[C@@H]1[C@@H]2CC[C@]2(C)[C@@H](OC(=O)N(CCCl)N=O)CC[C@@H]12 | – | > 37.7 µM | 0.118 µM | 3.66 µM | 0.734 µM | 17.9 µM | 0.933 µM | 7.95 µM | 1.11 µM | 10.5 µM | 0.06 µM | 2.99 µM | 0.179 µM | 11.1 µM | 11.5 µM | 29.7 µM | 1.32 µM | 25.4 µM | 0.069 µM | 4.67 µM
CCOC(=O)/C=C1/SC(=Nc2ccc(C#N)cc2)N(Cc2ccco2)C1=O | 2.71 µM | 8.41 µM | 1.93 µM | 4.17 µM | 2.45 µM | 6.76 µM | 3.67 µM | 15.8 µM | 1.45 µM | 2.86 µM | 5.66 µM | 19.7 µM | 4.51 µM | 22.9 µM | 2.74 µM | 11.2 µM | 10.6 µM | 34.5 µM | 3.09 µM | 12.4 µM
